{"source": "paper PMC12672436", "about": "(Frontiers in Pharmacology, 2025)", "key": {"human OCT3 [1]": {"biological_target": "T1, human OCT3 (Homo sapiens, UniProt O75751)", "T1 construct": "expressed in transfected cells", "T1 sequence (O75751 1-556)": "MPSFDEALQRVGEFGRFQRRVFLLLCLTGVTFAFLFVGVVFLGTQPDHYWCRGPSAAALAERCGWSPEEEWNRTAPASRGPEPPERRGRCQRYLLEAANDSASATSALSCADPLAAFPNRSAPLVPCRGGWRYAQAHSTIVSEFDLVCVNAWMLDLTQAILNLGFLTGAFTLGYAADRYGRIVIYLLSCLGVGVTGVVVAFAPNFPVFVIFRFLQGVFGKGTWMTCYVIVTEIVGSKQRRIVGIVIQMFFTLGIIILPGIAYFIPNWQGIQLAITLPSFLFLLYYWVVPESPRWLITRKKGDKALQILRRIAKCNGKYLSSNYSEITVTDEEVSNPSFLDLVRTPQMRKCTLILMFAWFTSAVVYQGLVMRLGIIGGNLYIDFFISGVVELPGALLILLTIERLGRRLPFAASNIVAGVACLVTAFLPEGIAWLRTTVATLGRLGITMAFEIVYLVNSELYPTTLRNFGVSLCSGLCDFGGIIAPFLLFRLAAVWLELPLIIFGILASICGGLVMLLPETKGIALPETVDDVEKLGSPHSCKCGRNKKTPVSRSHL", "set-up": "method as in Angenoorth et al., 2021", "conditions": "ref Angenoorth et al., 2021; cited from earlier work"}, "human OCT2 [2]": {"biological_target": "T2, human OCT2 (Homo sapiens, UniProt O15244)", "T2 sequence (O15244 1-555)": "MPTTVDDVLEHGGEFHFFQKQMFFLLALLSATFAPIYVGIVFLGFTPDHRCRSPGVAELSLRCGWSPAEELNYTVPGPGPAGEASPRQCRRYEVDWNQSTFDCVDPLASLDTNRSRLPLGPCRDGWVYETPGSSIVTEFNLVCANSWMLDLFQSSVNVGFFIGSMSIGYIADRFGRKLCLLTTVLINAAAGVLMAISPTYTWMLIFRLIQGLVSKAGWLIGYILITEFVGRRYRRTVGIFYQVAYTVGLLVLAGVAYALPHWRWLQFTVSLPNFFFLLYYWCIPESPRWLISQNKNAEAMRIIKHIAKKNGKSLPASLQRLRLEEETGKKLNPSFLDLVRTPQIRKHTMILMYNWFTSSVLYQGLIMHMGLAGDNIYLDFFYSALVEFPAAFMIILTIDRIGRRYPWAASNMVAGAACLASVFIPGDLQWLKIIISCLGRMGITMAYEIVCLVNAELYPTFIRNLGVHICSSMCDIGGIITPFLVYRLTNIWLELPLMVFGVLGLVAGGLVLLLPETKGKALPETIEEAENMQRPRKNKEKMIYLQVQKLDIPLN", "set-up": "expressed in transfected cells; method as in Angenoorth et al., 2021", "conditions": "ref Angenoorth et al., 2021; cited from earlier work"}, "human OCT3 [3]": {"biological_target": "T1, human OCT3", "assay": "Uptake inhibition assay, OCT3", "format": "cell-based", "conditions": "HEK293 cells expressing human OCT3, 0.05 µM [3H]MPP+", "experimental": "(§1) Cells were cultured in Dulbecco’s modified Eagle’s medium (DMEM) supplemented with 10% fetal bovine serum and 250 μg/mL geneticin to maintain selection pressure.\n(§2) HEK293 cells heterologously expressing the respective transporters were seeded onto poly-D-lysine (PDL)-coated 96-well plates at a density of ∼36,000 cells per well, 1 day before experiments. For the experiment, medium was replaced with 200 µL Krebs HEPES buffer (KHB; 120 mM NaCl, 3 mM KCl, 2 mM CaCl2·2H2O, 2 mM MgCl2·6H2O, 20 mM D-glucose, pH 7.3). Test compounds were dissolved in Milli-Q water or dimethyl sulfoxide (DMSO) at 10–100 mM stock concentrations. Cells were preincubated for 5 min with the compound of interest (diluted in KHB to the indicated concentrations). The preincubation solution was then replaced with 50 µL/well of diluted compound together with tritiated substrate (DAT, OCT1, OCT2, OCT3: 0.05 μM [^3H]MPP^+; NET: 0.02 μM [^3H]MPP^+; SERT: 0.1 μM [^3H]5-HT) for 1 min (SERT) or 3 min (DAT, NET, OCT1– OCT3). After the incubation, uptake was terminated by rapidly washing cell with 200 μL KHB, followed by addition of 200 μL Ultima Gold™ XR scintillation cocktail (PerkinElmer, MA, United States) to each well. […] Uptake in the absence of inhibitor was defined as 100%, while uptake in presence of a reference inhibitor (hDAT, hNET: 50 μM GBR12909; hSERT: 3 μM paroxetine; OCT1–OCT3: 100 µM D22) was defined as nonspecific uptake (0%) and subtracted from all values.\n(§3) Uptake is expressed as a percentage of control (uptake in the absence of test compound). Data represent mean ± SD of ≥3 independent experiments."}, "human OCT2 [4]": {"biological_target": "T2, human OCT2", "assay": "cell-based", "experimental": "as §1, §2, §3"}, "human OCT1 [5]": {"biological_target": "T3, human OCT1 (Homo sapiens, UniProt O15245)", "T3 sequence (O15245 1-554)": "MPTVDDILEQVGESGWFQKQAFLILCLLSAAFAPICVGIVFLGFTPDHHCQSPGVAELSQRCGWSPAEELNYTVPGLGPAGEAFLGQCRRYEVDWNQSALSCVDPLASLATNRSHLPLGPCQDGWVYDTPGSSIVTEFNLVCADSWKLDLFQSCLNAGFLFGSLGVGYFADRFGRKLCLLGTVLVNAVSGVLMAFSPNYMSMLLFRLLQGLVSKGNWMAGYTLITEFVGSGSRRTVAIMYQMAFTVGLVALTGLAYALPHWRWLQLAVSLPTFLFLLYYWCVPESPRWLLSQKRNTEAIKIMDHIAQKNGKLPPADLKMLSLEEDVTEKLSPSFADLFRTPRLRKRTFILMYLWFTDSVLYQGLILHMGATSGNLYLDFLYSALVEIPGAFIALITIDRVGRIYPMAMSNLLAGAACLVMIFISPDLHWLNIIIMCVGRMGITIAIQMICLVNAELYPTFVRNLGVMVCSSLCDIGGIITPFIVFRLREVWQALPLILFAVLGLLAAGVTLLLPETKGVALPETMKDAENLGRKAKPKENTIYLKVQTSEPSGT", "assay": "cell-based", "experimental": "as §1, §2, §3"}, "human OCT1 [6]": {"biological_target": "T3, human OCT1", "set-up": "expressed in transfected cells; method as in Angenoorth et al., 2021", "conditions": "ref Angenoorth et al., 2021; cited from earlier work"}, "human NET": {"biological_target": "T4, human NET (Homo sapiens, UniProt P23975)", "T4 construct": "expressed in transfected cells", "T4 sequence (P23975 whole entry)": "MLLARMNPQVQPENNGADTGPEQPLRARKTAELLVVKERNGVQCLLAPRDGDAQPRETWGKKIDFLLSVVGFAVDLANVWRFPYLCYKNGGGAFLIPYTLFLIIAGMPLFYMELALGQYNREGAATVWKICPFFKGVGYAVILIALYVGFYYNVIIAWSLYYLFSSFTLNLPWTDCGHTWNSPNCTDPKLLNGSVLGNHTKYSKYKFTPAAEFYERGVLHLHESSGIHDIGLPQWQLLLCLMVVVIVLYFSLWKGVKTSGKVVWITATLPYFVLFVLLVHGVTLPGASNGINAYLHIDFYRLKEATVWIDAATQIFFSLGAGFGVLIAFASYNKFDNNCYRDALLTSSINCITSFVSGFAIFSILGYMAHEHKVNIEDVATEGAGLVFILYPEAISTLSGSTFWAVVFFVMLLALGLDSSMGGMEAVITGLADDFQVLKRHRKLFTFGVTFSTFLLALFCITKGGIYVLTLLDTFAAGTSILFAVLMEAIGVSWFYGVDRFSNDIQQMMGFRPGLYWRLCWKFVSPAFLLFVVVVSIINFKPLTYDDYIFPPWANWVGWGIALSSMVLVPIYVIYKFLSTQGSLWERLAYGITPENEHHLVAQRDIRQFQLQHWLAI", "assay": "cell-based", "format": "cell-based"}, "human DAT": {"biological_target": "T5, human DAT (Homo sapiens, UniProt Q01959)", "T5 construct": "expressed in transfected cells", "T5 sequence (Q01959 whole entry)": "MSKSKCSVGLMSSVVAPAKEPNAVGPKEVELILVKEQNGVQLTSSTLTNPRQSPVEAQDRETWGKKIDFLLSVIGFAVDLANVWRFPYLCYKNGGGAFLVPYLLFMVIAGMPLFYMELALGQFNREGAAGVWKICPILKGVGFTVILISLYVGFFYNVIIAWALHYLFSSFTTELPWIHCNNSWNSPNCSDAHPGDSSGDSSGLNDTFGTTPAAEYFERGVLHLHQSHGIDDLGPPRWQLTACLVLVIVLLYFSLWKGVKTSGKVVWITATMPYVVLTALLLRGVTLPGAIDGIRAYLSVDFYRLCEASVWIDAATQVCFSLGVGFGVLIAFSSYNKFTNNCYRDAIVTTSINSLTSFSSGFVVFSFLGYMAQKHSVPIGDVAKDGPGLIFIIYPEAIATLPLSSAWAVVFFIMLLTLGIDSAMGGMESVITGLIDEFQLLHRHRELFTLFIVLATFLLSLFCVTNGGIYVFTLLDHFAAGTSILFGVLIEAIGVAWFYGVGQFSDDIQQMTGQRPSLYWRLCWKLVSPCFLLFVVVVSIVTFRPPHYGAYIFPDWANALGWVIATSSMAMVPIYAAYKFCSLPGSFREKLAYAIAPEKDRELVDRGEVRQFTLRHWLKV", "assay": "Uptake inhibition assay, DAT", "format": "cell-based", "conditions": "HEK293 cells expressing human DAT, 0.05 µM [3H]MPP+; for IC50: given as a range"}, "[7]": {"conditions": "HEK293 cells expressing human NET, 0.02 µM [3H]MPP+"}, "[8]": {"conditions": "HEK293 cells expressing human NET, 0.02 µM [3H]MPP+, given as a range, read-out: IC50 of NET uptake inhibition"}}, "note": "Like-named read-outs stand apart in the source and are kept apart here.", "data": [{"molecule": "COC(=O)[C@H]1[C@@H](OC(=O)c2ccccc2)C[C@@H]2CC[C@H]1N2C", "note": "[cocaine]", "values": [{"measurement": "Inhibition of OCT3 (in words), previously reported", "setting": "human OCT3 [1]", "result": "but not OCT3"}, {"measurement": "Inhibition of OCT2 (in words), previously reported", "setting": "human OCT2 [2]", "result": "inhibits OCT1 and OCT2"}, {"measurement": "Inhibition of OCT3-mediated transport (in words)", "setting": "human OCT3 [3]", "result": "none of the compounds—cocaine, procaine, or lidocaine—substantially inhibited OCT3-mediated transport except at near-millimolar concentrations"}, {"measurement": "IC50", "setting": "human OCT2 [4]", "result": "15 to 42", "unit": "µM"}, {"measurement": "IC50", "setting": "human OCT1 [5]", "result": "19 to 57", "unit": "µM"}, {"measurement": "Inhibition of OCT1 (in words), previously reported", "setting": "human OCT1 [6]", "result": "inhibits OCT1 and OCT2"}]}, {"molecule": "CC(=O)Nc1ccc(O)cc1", "note": "[paracetamol]", "values": [{"measurement": "Inhibitory activity at NET (in words)", "setting": "human NET; [7]", "result": "no measurable inhibitory activity"}, {"measurement": "Inhibitory activity at DAT (in words)", "setting": "human DAT", "result": "no measurable inhibitory activity"}]}, {"molecule": "c1ccc([C@H]2CN3CCSC3=N2)cc1", "note": "[levamisole]", "values": [{"measurement": "IC50", "setting": "human NET", "result": "60 to 106", "unit": "µM"}, {"measurement": "IC50", "setting": "human DAT", "result": "81 to 316", "unit": "µM"}]}, {"molecule": "CCN(CC)CC(=O)Nc1c(C)cccc1C", "note": "[lidocaine]", "values": [{"measurement": "Inhibitory activity at NET (in words)", "setting": "human NET; [7]", "result": "no inhibitory potency"}, {"measurement": "Inhibitory activity at DAT (in words)", "setting": "human DAT", "result": "no inhibitory potency"}]}, {"molecule": "CCOc1ccc(NC(C)=O)cc1", "note": "[phenacetin]", "values": [{"measurement": "Inhibitory activity at NET (in words)", "setting": "human NET; [7]", "result": "no measurable inhibitory activity"}, {"measurement": "Inhibitory activity at DAT (in words)", "setting": "human DAT", "result": "no measurable inhibitory activity"}]}, {"molecule": "CCN(CC)CCOC(=O)c1ccc(N)cc1", "note": "[procaine]", "values": [{"measurement": "IC50", "setting": "human NET; [8]", "result": "88 to 146", "unit": "µM"}, {"measurement": "Inhibition of OCT3-mediated transport (in words)", "setting": "human OCT3 [3]", "result": "none of the compounds—cocaine, procaine, or lidocaine—substantially inhibited OCT3-mediated transport except at near-millimolar concentrations"}, {"measurement": "IC50", "setting": "human OCT2 [4]", "result": "10 to 24", "unit": "µM"}, {"measurement": "IC50", "setting": "human OCT1 [5]", "result": "5 to 9", "unit": "µM"}, {"measurement": "IC50", "setting": "human DAT", "result": "15 to 29", "unit": "µM"}]}, {"molecule": "CCOC(=O)c1ccc(N)cc1", "note": "[benzocaine, Ethyl 4-Aminobenzoate]", "values": [{"measurement": "IC50", "setting": "human NET; [8]", "result": "215 to 444", "unit": "µM"}, {"measurement": "Inhibition of OCT3-mediated transport (in words)", "setting": "human OCT3 [3]", "result": "failed to inhibit"}, {"measurement": "Inhibition of [3H]MPP+ transport via OCT2 (in words)", "setting": "human OCT2 [4]; HEK293 cells expressing human OCT2, 0.05 µM [3H]MPP+", "result": "failed to inhibit"}, {"measurement": "Inhibition of [3H]MPP+ transport via OCT1 (in words)", "setting": "human OCT1 [5]; HEK293 cells expressing human OCT1, 0.05 µM [3H]MPP+", "result": "failed to inhibit"}, {"measurement": "IC50", "setting": "human DAT", "result": "17 to 27", "unit": "µM"}]}]}
